From PubChem BioAssay AID330 (DTP/NCI, 2004)
Toxic doses and inconclusive results are not listed.

Test system: P388 leukemia ip, CD2F1 mice, survival T/C
Experiment: NCI In Vivo Anticancer Drug Screen. Data for tumor model P388 Leukemia (intraperitoneal) in CD2F1 (CDF1) mice
Conditions: endpoint: median survival time, higher = longer survival
Method in brief: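 Mice carrying the transplanted tumor received test compound or vehicle. Survival was recorded in each group, and the value is the treated-group measurement divided by that of the vehicle-treated control group.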

[1] = dose: 100.0 mg/kg/injection, schedule: Q01DX001 (ip), vehicle: Klucel (hydroxypropylcellulose) (HPC)
[2] = dose: 60.0 mg/kg/injection, schedule: Q01DX005 (ip), vehicle: Klucel (hydroxypropylcellulose) (HPC)
[3] = dose: 120.0 mg/kg/injection, schedule: Q01DX005 (ip), vehicle: Klucel (hydroxypropylcellulose) (HPC)
[4] = dose: 100.0 mg/kg/injection, schedule: Q01DX009 (ip), vehicle: saline with Tween-80
[5] = dose: 200.0 mg/kg/injection, schedule: Q01DX009 (ip), vehicle: saline with Tween-80
[6] = dose: 100.0 mg/kg/injection, schedule: Q04DX003 (ip), vehicle: saline
[7] = dose: 200.0 mg/kg/injection, schedule: Q04DX003 (ip), vehicle: saline
[8] = dose: 400.0 mg/kg/injection, schedule: Q04DX003 (ip), vehicle: saline
[9] = dose: 50.0 mg/kg/injection, schedule: Q01DX009 (ip), vehicle: saline with Tween-80
[10] = dose: 50.0 mg/kg/injection, schedule: Q01DX005 (ip), vehicle: saline
[11] = dose: 100.0 mg/kg/injection, schedule: Q01DX005 (ip), vehicle: saline
[12] = dose: 200.0 mg/kg/injection, schedule: Q01DX005 (ip), vehicle: saline

Cc1cccc(-[n+]2noc(N)n2)c1
T/C (dose: 3.13 mg/kg/injection, schedule: Q01DX009 (ip), vehicle: water): 100 % of control
T/C (dose: 6.25 mg/kg/injection, schedule: Q01DX009 (ip), vehicle: water): 100 % of control
T/C (dose: 12.5 mg/kg/injection, schedule: Q01DX009 (ip), vehicle: water): 114 % of control
T/C (dose: 25.0 mg/kg/injection, schedule: Q01DX009 (ip), vehicle: water): 152 % of control
T/C (dose: 50.0 mg/kg/injection, schedule: Q01DX009 (ip), vehicle: water): 167 % of control

COc1ccc(N=Nc2c(C)[nH]n(C)c2=O)cc1
T/C (dose: 100.0 mg/kg/injection, schedule: Q04DX002 (ip), vehicle: saline with Tween-80): 96 % of control
T/C (dose: 200.0 mg/kg/injection, schedule: Q04DX002 (ip), vehicle: saline with Tween-80): 97 % of control

O=C(O)Cn1nnc2ccccc21
T/C (dose: 100.0 mg/kg/injection, schedule: Q01DX009 (ip), vehicle: saline): 101 % of control
T/C (dose: 200.0 mg/kg/injection, schedule: Q01DX009 (ip), vehicle: saline): 96 % of control

OC(c1ccccc1)(c1ccc(Br)cc1)C1CC1 (centres undefined)
T/C (dose: 25.0 mg/kg/injection, schedule: Q01DX001 (ip), vehicle: Klucel (hydroxypropylcellulose) (HPC)): 100 % of control
T/C (dose: 50.0 mg/kg/injection, schedule: Q01DX001 (ip), vehicle: Klucel (hydroxypropylcellulose) (HPC)): 96 % of control
T/C [1]: 97 % of control

CC(=O)OC1CCC2C(=CCC3C2(C)C(=O)CC2(C)C(C4(C)OC(C(C)C)=CC4=O)C(O)CC32C)C1(C)C (centres undefined)
T/C (dose: 9.63 mg/kg/injection, schedule: Q01DX005 (ip), vehicle: saline + Tween-80 + alcohol): 111 % of control
T/C (dose: 19.25 mg/kg/injection, schedule: Q01DX005 (ip), vehicle: saline + Tween-80 + alcohol): 111 % of control
T/C (dose: 38.5 mg/kg/injection, schedule: Q01DX005 (ip), vehicle: saline + Tween-80 + alcohol): 106 % of control
T/C (dose: 77.0 mg/kg/injection, schedule: Q01DX005 (ip), vehicle: saline + Tween-80 + alcohol): 97 % of control

COC1C(C)(C)C1(Br)Br (centres undefined)
T/C (dose: 50.0 mg/kg/injection, schedule: Q01DX005 (ip), vehicle: saline with Tween-80): 100 % of control
T/C (dose: 100.0 mg/kg/injection, schedule: Q01DX005 (ip), vehicle: saline with Tween-80): 99 % of control
T/C (dose: 200.0 mg/kg/injection, schedule: Q01DX005 (ip), vehicle: saline with Tween-80): 98 % of control

COc1cc(C=NC2CCCCC2)cc(OC)c1OC
T/C (dose: 100.0 mg/kg/injection, schedule: Q01DX001 (ip), vehicle: saline): 104 % of control
T/C (dose: 200.0 mg/kg/injection, schedule: Q01DX001 (ip), vehicle: saline): 101 % of control
T/C (dose: 400.0 mg/kg/injection, schedule: Q01DX001 (ip), vehicle: saline): 99 % of control

Cn1c(-c2ccccc2)nc2ccccc2c1=O
T/C (dose: 6.25 mg/kg/injection, schedule: Q01DX009 (ip), vehicle: saline with Tween-80): 95 % of control
T/C (dose: 12.5 mg/kg/injection, schedule: Q01DX009 (ip), vehicle: saline with Tween-80): 101 % of control
T/C (dose: 25.0 mg/kg/injection, schedule: Q01DX009 (ip), vehicle: saline with Tween-80): 101 % of control

Clc1cccc(-c2nc(N3CCOCC3)c3c4c(sc3n2)CCC4)c1
T/C [2]: 101 % of control
T/C [3]: 97 % of control
T/C (dose: 240.0 mg/kg/injection, schedule: Q01DX005 (ip), vehicle: Klucel (hydroxypropylcellulose) (HPC)): 97 % of control

c1ccc(C2=NC3CCCCC3N=C2c2ccccc2)cc1 (centres undefined)
T/C [4]: 100 % of control
T/C [5]: 100 % of control
T/C (dose: 400.0 mg/kg/injection, schedule: Q01DX009 (ip), vehicle: saline with Tween-80): 100 % of control

CCOC(=S)SC1CC2(C)C(CCC3C2CCC2(C)C(OC(C)=O)CCC32)CC1=O (centres undefined)
T/C [6]: 96 % of control
T/C [7]: 92 % of control
T/C [8]: 89 % of control

Cc1cc(O)c(C(=O)/C=C/c2ccnc3ccccc23)c(=O)o1
T/C [2]: 104 % of control
T/C [3]: 108 % of control

COC(=O)CCCC(NC(=O)c1ccc([N+](=O)[O-])cc1)C(=O)OC (centres undefined)
T/C [9]: 98 % of control
T/C [4]: 96 % of control
T/C [5]: 96 % of control

NCC(=O)c1ccc2oc3ccccc3c2c1
T/C (dose: 100.0 mg/kg/injection, schedule: Q01DX009 (ip), vehicle: Klucel (hydroxypropylcellulose) (HPC)): 112 % of control
T/C (dose: 200.0 mg/kg/injection, schedule: Q01DX009 (ip), vehicle: Klucel (hydroxypropylcellulose) (HPC)): 118 % of control

N#Cc1cc2ccccc2nc1SN
T/C [10]: 100 % of control
T/C [11]: 99 % of control
T/C [12]: 98 % of control

N#CC(Br)(Br)C(=O)c1nc(N)nc(N)n1
T/C (dose: 3.12 mg/kg/injection, schedule: Q01DX005 (ip), vehicle: saline with Tween-80): 96 % of control
T/C (dose: 6.25 mg/kg/injection, schedule: Q01DX005 (ip), vehicle: saline with Tween-80): 100 % of control
T/C (dose: 12.5 mg/kg/injection, schedule: Q01DX005 (ip), vehicle: saline with Tween-80): 104 % of control

COc1ccc2ccc(CCC(=O)O)cc2c1
T/C (dose: 12.5 mg/kg/injection, schedule: Q01DX009 (ip), vehicle: distilled water + Tween-80): 100 % of control
T/C (dose: 25.0 mg/kg/injection, schedule: Q01DX009 (ip), vehicle: distilled water + Tween-80): 100 % of control
T/C (dose: 50.0 mg/kg/injection, schedule: Q01DX009 (ip), vehicle: distilled water + Tween-80): 94 % of control
T/C (dose: 100.0 mg/kg/injection, schedule: Q01DX009 (ip), vehicle: distilled water + Tween-80): 99 % of control
T/C (dose: 200.0 mg/kg/injection, schedule: Q01DX009 (ip), vehicle: distilled water + Tween-80): 108 % of control

CNc1ccccc1C(=O)NN=C1c2ccccc2-c2ccccc21
T/C [9]: 100 % of control
T/C [4]: 106 % of control
T/C [5]: 99 % of control

O=C(NO)C1CCCCC12OCCO2 (centres undefined)
T/C (dose: 100.0 mg/kg/injection, schedule: Q04DX002 (ip), vehicle: saline): 98 % of control
T/C (dose: 200.0 mg/kg/injection, schedule: Q04DX002 (ip), vehicle: saline): 101 % of control
T/C (dose: 400.0 mg/kg/injection, schedule: Q04DX002 (ip), vehicle: saline): 101 % of control

Cn1c(=O)c2c(nc(/N=C/c3ccc([N+](=O)[O-])cc3)n2C)n(C)c1=O
T/C [6]: 100 % of control
T/C [7]: 86 % of control
T/C [8]: 93 % of control

COc1cc(C=Nc2ccc(Cl)cc2)ccc1N(CCCl)CCCl
T/C (dose: 0.44 mg/kg/injection, schedule: Q01DX009 (ip), vehicle: saline with Tween-80): 100 % of control
T/C (dose: 0.66 mg/kg/injection, schedule: Q01DX009 (ip), vehicle: saline with Tween-80): 100 % of control
T/C (dose: 1.0 mg/kg/injection, schedule: Q01DX009 (ip), vehicle: saline with Tween-80): 109 % of control
T/C (dose: 2.5 mg/kg/injection, schedule: Q01DX009 (ip), vehicle: saline with Tween-80): 95 % of control
T/C (dose: 5.0 mg/kg/injection, schedule: Q01DX009 (ip), vehicle: saline with Tween-80): 157 % of control
T/C (dose: 50.0 mg/kg/injection, schedule: Q04DX003 (ip), vehicle: saline with Tween-80): 204 % of control

O=C1/C(=C/N2CCOCC2)CCc2nc(-c3ccccc3)sc21
T/C (dose: 50.0 mg/kg/injection, schedule: Q01DX005 (ip), vehicle: Klucel (hydroxypropylcellulose) (HPC)): 109 % of control
T/C (dose: 100.0 mg/kg/injection, schedule: Q01DX005 (ip), vehicle: Klucel (hydroxypropylcellulose) (HPC)): 100 % of control
T/C (dose: 200.0 mg/kg/injection, schedule: Q01DX005 (ip), vehicle: Klucel (hydroxypropylcellulose) (HPC)): 100 % of control

O=C(Nc1cccnc1)c1cccc([N+](=O)[O-])c1
T/C (dose: 60.0 mg/kg/injection, schedule: Q01DX005 (ip), vehicle: saline with Tween-80): 100 % of control
T/C (dose: 120.0 mg/kg/injection, schedule: Q01DX005 (ip), vehicle: saline with Tween-80): 98 % of control
T/C (dose: 240.0 mg/kg/injection, schedule: Q01DX005 (ip), vehicle: saline with Tween-80): 97 % of control

C1CCC2(CC1)OCCCO2
T/C [1]: 94 % of control
T/C (dose: 200.0 mg/kg/injection, schedule: Q01DX001 (ip), vehicle: Klucel (hydroxypropylcellulose) (HPC)): 99 % of control
T/C (dose: 400.0 mg/kg/injection, schedule: Q01DX001 (ip), vehicle: Klucel (hydroxypropylcellulose) (HPC)): 107 % of control

CN(N=O)C(=O)NCC1OC(n2cnc3c(=O)[nH]cnc32)C(O)C1O (centres undefined)
T/C [10]: 100 % of control
T/C [11]: 105 % of control
T/C [12]: 121 % of control
